Source: paper PMC8966651, “PKPD Modeling of the Inoculum Effect of Acinetobacter baumannii on Polymyxin B in vivo” (Frontiers in Pharmacology, 2022)
Counter-ions that a name gives are not always drawn. Like-named read-outs stand apart in the source and are kept apart here. Bridge positions count the residues as written; N and C are the ends. Square brackets hold non-standard residues; d marks the D form. Peptide text beside a SMILES is read from it. * marks the point of attachment. X1 = CC[C@H](C)CCCCC(=O)*; Dab = NCC[C@H](N)C(=O)O

Assays:
[1] = test system: A. baumannii (CS01); test: In vivo PKPD model of PMB bactericidal effect and inoculum effect; set-up: species or system Acinetobacter baumannii; details: for mean IK-HL (initial killing half-life): mean over PMB concentrations; for kslope (kill rate constant due to PMB): model predicted
From the text: A PKPD model was developed in two steps to quantify the exposure-effect relationship of PMB in infected mice. First, time courses of total and unbound PMB concentrations were modeled and then, PK parameters were fixed during development of the PD part of the PKPD model.
The structural model for the bacterial population included one compartment representing drug-susceptible growing bacteria. A logistic function was used to model the self-limiting growth observed in vivo: dB/dt= knet×(1−B/Bmax)×B (1) Where, B (CFU/thigh) is the drug-susceptible bacterial population, knet (h^−1) is the apparent (net) growth rate constant and Bmax (CFU/thigh) the maximum bacterial count reached in the tissue. The residual error was additive on a log10 scale for bacterial counts (log10 CFU/thigh).
Predicted unbound plasma concentrations were linked to the bacterial sub-model using a mathematical function to characterize PMB antimicrobial effect (kPMB) such as: dB/dt= knet×(1−B/Bmax)×B − kPMB×B (2) Where multiple functions (linear, power, basic Emax or a sigmoidal Emax function) for kPMB were tested.
Empirical mathematical functions (i.e. linear, exponential and power) describing the relationship between kPMB and inoculum size were tested as a way to include the impact of inoculum size on PMB bactericidal activity.”
Model selection was based on objective function value (OFV) and goodness of fit (GOF) plots. When two models were nested, a decrease in OFV of at least 3.84 (chi square 1df p = 0.05) was needed to select the most complex model. Visual predictive checks (VPCs) based on 1,000 simulations were drawn after stratification on the PMB dose and the starting inoculum to evaluate the predictive performance of the model and were taken into account for model selection. Data below the LOQ were taken into account during parameter estimation by applying Beal’s M3 method ([Beal, 2001]). Parameter estimation was performed using NONMEM software (ICON, Dublin, Ireland) version 7.4.2 using the LAPLACIAN algorithm. Uncertainty around population parameters was estimated using the sampling importance resampling (SIR) technique ([Dosne et al., 2016]).
To evaluate the impact of outliers on parameter estimates and model-based inferences, a sensitivity analysis was performed. Briefly, model estimation was performed with the complete dataset and with a reduced dataset excluding outliers. Parameter estimates were compared and simulations of expected bacterial counts for all tested experimental conditions (i.e. all inocula and dosing regimens) were performed with the two parameter estimate sets.
The time course of bacterial counts was adequately described by the model depicted on Figure 1. VPCs of the final model are shown on Figure 3 and GOF plots on Supplementary Figure S4. PMB bactericidal effect (kPMB) was best described by a power function: kPMB = kslope × Cuγ (5) Where kslope corresponds to the kill rate constant due to PMB (L/mg.h), Cu the unbound PMB concentration (mg/L) and γ , the power parameter for PMB effect.
The inoculum effect was incorporated in the model as a decrease of kslope with increasing theoretical starting inoculum using a linear function: kslope=kslope,med +kinoc×(starting inoculum−6) (6) Where kslope,med is the kill rate constant for a theoretical starting inoculum of 6 log10 CFU/thigh corresponding to the median of the starting inoculum tested in the present study (5, 6 or 7 log10 CFU/thigh) and kinoc is the constant describing the inoculum effect on kslope.

[2] = test system: A. baumannii; details: ref Akrong et al., 2021, cited from earlier work; for increase of in vitro IK-HL: starting inoculum from 10^5 to 10^7 CFU/ml
From the text: High bacterial counts may alter antibiotherapy success due to an inoculum effect (IE) ([Chastre and Fagon, 2002]; [Koenig and Truwit, 2006]; [Kalanuria et al., 2014]), corresponding to a reduction of the antibiotic activity as bacterial count increases ([Harada et al., 2014]; [Lenhard and Bulman, 2019]). This phenomenon has been described in vitro for ß-lactam antibiotics used against ß-lactamases-producing bacteria such as Escherichia coli and Klebsiella pneumoniae ([Bedenić et al., 2001]; [Harada et al., 2014]; [Smith and Kirby, 2018]; [Lenhard and Bulman, 2019]). It has also been reported i ... || An innovative aspect of this study was the refinement of a PKPD model, based on the model developed after in vitro TK experiments conducted with A. baumannii and PMB ([Akrong et al., 2021]). […] The different growth behavior between in vitro and in vivo has been associated in literature ... || In both in vitro and in vivo PKPD models, a decrease in PMB killing effect was related to the baseline inoculum and was modeled either as a decrease of the in vivo PMB killing rate constant (kslope) or as an increase of the in vitro half-maximal effective concentration of PMB (EC50), making PMB IE difficult to compare between in vitro and in vivo. In vivo IK-HL were derived from Equation 5 for each starting inoculum and various PMB concentrations to better illustrate the consequences of IE on PMB activity (Table 3).

[3] = SC, highest dose 32 mg/kg; ref Landersdorfer et al., 2018; cited from earlier work
Experimental: These new study results can be compared with those previously obtained in relatively similar conditions, at least from PK standpoint ([Landersdorfer et al., 2018]). In both studies PMB was administered subcutaneously to neutropenic mice infected with K. pneumoniae ([Landersdorfer et al., 2018]) or A. baumannii, leading to saturable absorption rate. However although Landersdorfer et al. used a model with parallel linear and saturable absorption, an Emax model was sufficient to provide satisfactory fit of our data. Noticeably, while this nonlinear absorption was important to consider for PK and ...

SMILES: CC[C@H](C)CCCCC(=O)N[C@@H](CCN)C(=O)N[C@H](C(=O)N[C@@H](CCN)C(=O)N[C@H]1CCNC(=O)[C@H]([C@@H](C)O)NC(=O)[C@H](CCN)NC(=O)[C@H](CCN)NC(=O)[C@H](CC(C)C)NC(=O)[C@@H](Cc2ccccc2)NC(=O)[C@H](CCN)NC1=O)[C@@H](C)O [PMB, Polymyxin B sulfate] (X1-[Dab]T[Dab][Dab][Dab][dF]L[Dab][Dab]T; lactam 4-C)
- mean IK-HL higher at 10^7 CFU/thigh compared with 10^5 CFU/thigh inoculum ([1]; in vivo): 48%
- mean IK-HL (initial killing half-life) ([1]; in vivo, inoculum 10^5 CFU/thigh): 32.4 min
- mean IK-HL (initial killing half-life) ([1]; in vivo, inoculum 10^7 CFU/thigh): 48 min
- kslope (kill rate constant due to PMB) ([1]; starting inoculum 5 log10 CFU/thigh): 19800 µL/min/mg
- kslope (kill rate constant due to PMB) ([1]; starting inoculum 7 log10 CFU/thigh): 13500 µL/min/mg
- decrease in the in vivo PMB bactericidal effect ([1]; starting inoculum increases from 10^5 to 10^7 CFU/thigh): 32%
- change of kslope ([1]; starting inoculum increasing from 5 to 7 log10 CFU/thigh): −32%
- Model derived initial killing half-life ([1]; unbound PMB 0.5 mg/L, inoculum 10^5 CFU/thigh): 39 min
- Model derived initial killing half-life ([1]; unbound PMB 0.5 mg/L, inoculum 10^6 CFU/thigh): 47 min
- Model derived initial killing half-life ([1]; unbound PMB 0.5 mg/L, inoculum 10^7 CFU/thigh): 58 min
- Model derived initial killing half-life ([1]; unbound PMB 1 mg/L, inoculum 10^5 CFU/thigh): 35 min
- Model derived initial killing half-life ([1]; unbound PMB 1 mg/L, inoculum 10^6 CFU/thigh): 42 min
- Model derived initial killing half-life ([1]; unbound PMB 1 mg/L, inoculum 10^7 CFU/thigh): 52 min
- Model derived initial killing half-life ([1]; unbound PMB 2 mg/L, inoculum 10^5 CFU/thigh): 31 min
- Model derived initial killing half-life ([1]; unbound PMB 2 mg/L, inoculum 10^6 CFU/thigh): 37 min
- Model derived initial killing half-life ([1]; unbound PMB 2 mg/L, inoculum 10^7 CFU/thigh): 46 min
- Model derived initial killing half-life ([1]; unbound PMB 3 mg/L, inoculum 10^5 CFU/thigh): 29 min
- Model derived initial killing half-life ([1]; unbound PMB 3 mg/L, inoculum 10^6 CFU/thigh): 35 min
- Model derived initial killing half-life ([1]; unbound PMB 3 mg/L, inoculum 10^7 CFU/thigh): 43 min
- Model derived initial killing half-life ([1]; unbound PMB 4 mg/L, inoculum 10^5 CFU/thigh): 28 min
- Model derived initial killing half-life ([1]; unbound PMB 4 mg/L, inoculum 10^6 CFU/thigh): 33 min
- Model derived initial killing half-life ([1]; unbound PMB 4 mg/L, inoculum 10^7 CFU/thigh): 41 min
- in vitro IK-HL ([2]; PMB 0.25 mg/L, starting inoculum 10^5 CFU/ml): 10 min
- in vitro IK-HL ([2]; PMB 0.25 mg/L, starting inoculum 10^7 CFU/ml): 24 min
- increase of in vitro IK-HL ([2]; PMB 0.25 mg/L): 140%
- in vitro IK-HL ([2]; PMB 4 mg/L, starting inoculum 10^5 CFU/ml): 5 min
- in vitro IK-HL ([2]; PMB 4 mg/L, starting inoculum 10^7 CFU/ml): 8 min
- increase of in vitro IK-HL ([2]; PMB 4 mg/L): 60%
- increase of the PMB concentration to reach 50% of maximal effect (EC50) ([2]; initial inoculum increased from 10^5 to 10^8 CFU/ml, static time-kill): 17 fold
- peak concentrations at the highest dose [3]: ~20 mg/L
